Results taken from ChEMBL document CHEMBL6109165, “Novel Triazole-Substituted Imidazo[1,2-a]Pyrimidine Compounds as cGAS inhibitors” (ACS Med Chem Lett, 2025).
≈ marks a conversion by molar mass, not a printed value.

Assays:
[1] = Solubility of compound in FaSSIF at pH 6.5 measured after 4 hrs by HPLC-UV analysis; assay type: physicochemical
[2] = molecular target: Cyclic GMP-AMP synthase (Homo sapiens) (UniProt Q8N884); test: Inhibition of human recombinant cGAS (157 to 522 residues) extracted from Escherichia coli BL21(DE3)cells using GTP/ATP as substrate incubated for 1 to 2 hrs by Rapidfire 300 mass spectrometric analysis; details: time 1-2 hrs
[3] = molecular target: Cyclic GMP-AMP synthase (Homo sapiens) (UniProt Q8N884); test: Inhibition of cGAS in human whole blood incubated for 6 hrs by cytometric bead array; assay type: tissue-based

Chain of Cyclic GMP-AMP synthase (Homo sapiens) (Q8N884 whole entry, the tested form may be a part): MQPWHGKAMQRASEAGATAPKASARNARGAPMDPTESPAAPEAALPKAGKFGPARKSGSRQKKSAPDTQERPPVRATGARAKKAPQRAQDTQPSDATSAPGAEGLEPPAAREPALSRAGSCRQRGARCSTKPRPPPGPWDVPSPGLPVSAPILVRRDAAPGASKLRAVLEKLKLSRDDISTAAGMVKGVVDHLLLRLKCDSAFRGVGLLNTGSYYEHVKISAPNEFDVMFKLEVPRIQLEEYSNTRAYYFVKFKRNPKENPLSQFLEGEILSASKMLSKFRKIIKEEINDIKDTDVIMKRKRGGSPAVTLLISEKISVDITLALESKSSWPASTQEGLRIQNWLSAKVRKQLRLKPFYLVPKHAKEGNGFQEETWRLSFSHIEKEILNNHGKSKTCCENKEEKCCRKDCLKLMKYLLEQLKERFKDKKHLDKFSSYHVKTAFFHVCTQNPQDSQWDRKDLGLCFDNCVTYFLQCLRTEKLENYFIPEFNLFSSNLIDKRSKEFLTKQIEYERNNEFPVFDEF

solubility at 4 h [1] [µg/mL]	pXC50 [2]	pXC50 [3]	SMILES
4 (≈ 12.5 µM)	–	–	FC(F)(F)c1n[nH]c(-c2nc3ncccn3c2-c2c[nH]cn2)n1
5 (≈ 14.8 µM)	8.4	6.5	Fc1cnc2nc(-c3nc(C(F)(F)F)n[nH]3)c(-c3c[nH]cn3)n2c1
> 1000	7.5	6.5	O=C(CCCOP(=O)(O)O)OCn1cnc(-c2c(-c3nc(C(F)(F)F)nn3COC(=O)CCCOP(=O)(O)O)nc3ncccn23)c1.O=C(O)C(F)(F)F
> 1000	6.1	–	O=P(O)(O)OCn1nc(C(F)(F)F)nc1-c1nc2ncc(F)cn2c1-c1cnc[nH]1
